Assay results from patent US20160067298A1, “MUSCADINE GRAPE SKIN EXTRACT AS TREATMENT FOR BONE METASTATIC CANCER” (Clark Atlanta University, priority 2014, published 2016).
“Also recorded” adds a separate entry of the source. Peptide text beside a SMILES is read from it. * marks the point of attachment. Cbz = O=C(OCc1ccccc1)*

B1: OPG: Osteoprotegerin, decoy receptor that binds RANKL; used as control in osteoclastogenesis assay (protein, UniProt O00300 22-401, looked up)
Tumor necrosis factor …: ETFPPKYLHYDEETSHQLLCDKCPPGTYLKQHCTAKWKTVCAPCPDHYYTDSWHTSDECLYCSPVCKELQYVKQECNRTHNRVCECKEGRYLEIEFCLKHRSCPPGFGVVQAGTPERNTVCKRCPDGFFSNETSSKAPCRKHTNCSVFGLLLTQKGNATHDNICSGNSESTQKCGIDVTLCEEAFFRFAVPTKFTPNWLSVLVDNLPGTKVNAESVERIKRQHSSQEQTFQLLKLWKHQNKDQDIVKKIIQDIDLCENSVQRHIGHANLTFEQLRSLMESLPGKKVGAEDIEKTIKACKPSDQILKLLSLWRIKNGDQDTLKGLMHALKHSKTYHFPKTVTQSLKKTIRFLHSFTMYKLYQKLFLEMIGNQVQSVKISCL

Key:
[1] = system: rat bone cells; settings: by inhibiting collagen degradation; cited from earlier work
[2] = system: MCF-7 and ARCaP-E cells over expressing Snail; assay: In vitro cell invasion assay (Matrigel); assay type: cell-based, human; settings: 5 μM Z-FY-CHO for 72 hours; invasion 24 hours
Description: The invasive properties of the cell lines were measured using the BD BioCoat Matrigel Invasion guidelines. Briefly, Boyden chamber inserts (Thermo Fisher Scientific, Waltham, Mass., USA) were coated with 40 μl 1:4 Matrigel and allowed to solidify at 37° C. for 1 h. 5×10^4 cells were seeded in triplicate in 0.1% FBS, while the lower chamber contained 10% FBS. Cells were allowed to invade through the porous membrane coated with Matrigel at 37° C. for 24-72 h. Inserts were fixed, stained with 0.05% crystal violet. Cell counts were performed for the determination of relative cell invasion.
FIGS. 4C and 4D represent cell invasion of the same cell lines. 5×10^4 cells were plated on transwells coated with Matrigel. Cell invasion was allowed to take place for 24 hours. The number of cells that invaded through the transwell membranes were determined by counting at least 4 random microscopic fields. Compared to neo empty vector cells overexpressing Snail represent an increase in migration and invasion. MSKE and Z-FY-CHO decrease migratory and invasive cells. Asterisks represent p-value of statistical significance (n=3, ***p<0.001, **p<0.01, *p<0.05). Values were normalized to untreated controls and the mean±SEM of data were obtained from three independent replicate experiments with at least three wells per treatment group in each individual replicate. Statistical analysis was done with Student t test.

[3] = system: Snail; assay: Western blot analysis, Snail; assay type: cell-based, human; settings: 5 μM Z-FY-CHO, 72 h
Description: (§1) We also performed Western blot analysis of whole cell lysates obtained from untreated control and MSKE treatments. ARCaPE and MCF-7 cells over expressing Snail were treated with MSKE for 3 days, and probed for Snail, phosph-STAT-3 (p-STAT3), and […] Western blot analysis.
(§2) Cells were lysed in a modified RIPA buffer (50 mM Tris pH 8.0, 150 mM NaCl, 0.02% NaN3, 0.1% SDS, 1% NP-40, 0.5% sodium deoxycholate) containing 1.5× protease inhibitor cocktail, 1 mM phenylmethylsufonyl fluoride (PMSF), and 1 mM sodium orthovanadate. Whole cell lysates were freeze-thawed at −80° C./4° C. for three cycles, then centrifuged at 13,000 rpm for 30 min at 4° C. Supernatants were collected and quantified using a micro BCA assay (Promega, Madison, Wis.). 40 μg of cell lysate was resolved using 10% SDS PAGE, followed by transblotting onto nitrocellulose membrane (Bio-Rad Laboratories, Hercules, Calif.). Membranes were blocked with 3% milk (TBS-T containing 3% milk), then washed and incubated with primary antibody dilution buffer. […]
(§3) The expression levels of Snail, mature CatL, STAT-3 and Phospho-STAT-3 (pstat-3) were determined with western blot. […] Mature Cathepsin L activity was determined by gelatin zymography. Cathepsin L activity was quantified with densitometry of each band on the gel. […]

[4] = system: ARCaP-Snail/MCF-7 Snail co-cultured with spleen macrophages; assay: In vitro osteoclastogenesis assay (TRAP staining of mature osteoclasts); assay type: cell-based, human; settings: vs untreated control
Description: We obtained MSKE from Dr Tamaro Hudson, our collaborator from Howard University and used it to perform osteoclastogenesis assay on prostate and breast cancer cell lines, including one in which Snail, a transcription factor, is overexpressed. 3×10^3 ARCaP-Neo/MCF-7 Neo or ARCaP-Snail/ MCF-7 Snail was co-cultured with 40×10^4 spleen macrophages in 48-well plates plus 1 ng/ml M-CSF plus or minus 5 μg/ml MSKE, 20 μg/ml MSKE, and 5 μM Z-FY-CHO CatL inhibitor.
The cells were fed every three days by replacing half the media with fresh media plus or minus MSKE or Z-FY-CHO. Macrophages alone were utilized as a negative control. After 7-14 days the cells were fixed with 3% formaldehyde and processed for TRAP staining according to manufacturer instructions, to visualize the formation of mature osteoclasts.
3×10^3 ARCaP-Neo/MCF-7 Neo or ARCaP-Snail/MCF-7 Snail was co-cultured with 40×10^4 spleen macrophages in 48-well plates plus 1 ng/ml M-CSF plus or minus 5 μg/mL MSKE, 20 μg/mL MSKE or […] Z-FY-CHO Cat L inhibitor. […]
3×10^3 or 1×10^3 prostate cancer cells overexpressing Snail (see FIG. 5) and breast cancer cells overexpressing Snail (FIG. 6) were co-cultured with 40×10^4 Macrophages for 14 days and treated with 50 ng/mL osteoprotogerin (control), 5 μM Z-FY-CHO, 5 μg/mL or 20 μg/ML MSKE. […] Osteoclasts were determined by having 3 or more nuclei (FIGS. 5 and 6 insets). […]

[5] = system: p-STAT-3; assay: Western blot analysis, phospho-STAT-3; assay type: cell-based, human; settings: 5 μM Z-FY-CHO, 72 h
Description: as §1, §2, §3

[6] = system: mature CatL; assay: Western blot analysis, mature CatL; assay type: cell-based, human; settings: 5 μM Z-FY-CHO, 72 h
Description: as §1, §2, §3

[7] = molecular target: T1, Cathepsin L (CatL) (Homo sapiens, UniProt P07711); assay: Cathepsin gelatin zymography of conditioned media; assay type: cell-based; settings: 5 μM Z-FY-CHO, 72 h; vs untreated control
T1 construct: endogenous in cells; host or cells: conditioned media of ARCaP-E Snail, MCF-7 Snail and C4-2 cells
T1 sequence (P07711 114-333): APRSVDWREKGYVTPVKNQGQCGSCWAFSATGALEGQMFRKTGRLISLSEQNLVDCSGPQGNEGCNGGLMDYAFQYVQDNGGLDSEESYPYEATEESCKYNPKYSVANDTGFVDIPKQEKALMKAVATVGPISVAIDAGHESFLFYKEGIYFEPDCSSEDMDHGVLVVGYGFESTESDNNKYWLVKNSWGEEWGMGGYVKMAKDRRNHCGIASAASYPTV
Description: We also performed cathepsin zymography to detect cathepsin activity in untreated control and MSKE treatments. ARCaPE and MCF-7 cells over expressing Snail were treated with MSKE for 3 days using the condition media from the […]. With these steps we were able to detect higher CatL activity (enzymes hydrolyze the embedded substrate in situ, and proteolytic activity can be visualized as cleared bands) in cells overexpressing Snail as compared to Neo empty vector control cells.
We utilized the cathepsin zymography technique as previously described. Briefly, 1 mL of conditioned media (CM) containing 0.1 mM leupeptin was concentrated utilizing vivaspin tube (GE Health Care). The concentrated CM was diluted by adding […] of the sample to 45 μl of 1× RIPA buffer followed by determination of the protein concentration using BCA protein assay kit. […] Cathepsin activity was subsequently quantified using densitometry (NIH Image J). […]
as §3

[8] = system: MCF-7 and ARCaP-E cells over expressing Snail; assay: In vitro cell migration assay (collagen I transwell); assay type: cell-based, human; settings: 5 μM Z-FY-CHO for 72 hours; migration 5 hours
Description: We utilized Costar 24-well plates containing a polycarbonate filter insert with an 8-μm pore size, to coat with 4.46 μg/μl rat tail collagen I on the outside for 24 h at 4° C. 5×10^4 cells were plated in the upper chamber containing RPMI supplemented with 0.1% fetal bovine serum (FBS) while the lower chamber contained RPMI supplemented with 10% FBS. After 5 h, cells that migrated to the bottom of the insert were fixed, stained with 0.05% crystal violet, and counted to obtain the relative cell migration.
FIGS. 4A and 4B show MCF-7 and ARCaP-E cells over expressing Snail treated with 5 μg/mL, 20 μg/mL Muscadine Grape Skin Extract (MSKE) and 5 μM Z-FY-CHO for 72 hours. 5×10^4 cells were plated on transwell coated with Type-I collagen as described in the materials and methods section. The cells were allowed to migrate for 5 hours and then fixed and stained. The number of cells that migrated through the transwell membranes was determined by counting at least 4 random microscopic fields.

Molecule	bone resorption [1]	cell invasion [2]	Snail expression [3]	formation of osteoclasts ([4]; 5 μM Z-FY-CHO, prostate and breast cancer cells overexpressing Snail co-cultured with macrophages)	STAT-3 activation (p-STAT-3) [5]	Cat L expression [6]	amount of active CatL (CatL activity) [7]	cell migration [8]	formation of osteoclasts ([4]; 50 ng/ml OPG)
O=C[C@H](Cc1ccc(O)cc1)NC(=O)[C@H](Cc1ccccc1)NC(=O)OCc1ccccc1 [Z-FY-CHO] (Cbz-Phe-Tyr-aldehyde)	inhibit	abrogated; also recorded: decrease	decrease	significantly decrease; also recorded: significantly abrogated	decrease	decrease	significantly decreased; also recorded: decrease	abrogated; also recorded: decrease	–
B1	–	–	–	–	–	–	–	–	significantly decreased
